Drawing on ChEMBL document CHEMBL4033759, “Photoaffinity Labeling of the Human A2A Adenosine Receptor and Cross-link Position Analysis by Mass Spectrometry” (ACS Med Chem Lett, 2017), this text covers Kd and Ki for three compounds.

For assay [1], the target named is T1, Adenosine receptor A2a (Homo sapiens, UniProt P29274). The experiment in a line: Binding affinity to human A2A adenosine receptor expressed in HEK293 cells after 1 hr by fluorescence polarization assay. Type of assay: cell-based. For orientation: Polarisation of emitted light reports the rotation of a fluorescent probe.
The target of assay [2] is T1, Adenosine receptor A2a. The experiment in a line: Binding affinity to C-terminal 10xHis and 1D4-tagged C-terminal-truncated human A2A adenosine receptor (1 to 316 residues) expressed in Pichia pastoris expression system at 1 nM after 1 hr by fluorescence polarization assay. The following applies: read-out: Kd(app).
The target of assay [3] is T1, Adenosine receptor A2a. The experiment in a line: Binding affinity to C-terminal 10xHis and 1D4-tagged C-terminal-truncated human A2A adenosine receptor (1 to 316 residues) expressed in Pichia pastoris expression system at 2 nM after 1 hr by fluorescence polarization assay. The following applies: read-out: Kd(app).
For assay [4], the target named is T1, Adenosine receptor A2a. The experiment in a line: Binding affinity to C-terminal 10xHis and 1D4-tagged C-terminal-truncated human A2A adenosine receptor (1 to 316 residues) expressed in Pichia pastoris expression system at 8 nM after 1 hr by fluorescence polarization assay. The following applies: read-out: Kd(app).
Assay [5] concerns the target T1, Adenosine receptor A2a. The experiment in a line: Binding affinity to C-terminal 10xHis and 1D4-tagged C-terminal-truncated human A2A adenosine receptor (1 to 316 residues) expressed in Pichia pastoris expression system at 4 nM after 1 hr by fluorescence polarization assay. The following applies: read-out: Kd(app).
Assay [6] deals with T1, Adenosine receptor A2a. The experiment in a line: Displacement of MRS5346 from C-terminal 10xHis and 1D4-tagged C-terminal-truncated human A2A adenosine receptor (1 to 316 residues) expressed in Pichia pastoris expression system after 1 hr by fluorescence polarization assay.

As usually defined, the Ki is a dissociation constant, usually derived from enzyme kinetics or from competition with a known ligand. Low values mean higher affinity, high ones lower affinity.

T1 sequence (P29274 whole entry, the tested form may be a part): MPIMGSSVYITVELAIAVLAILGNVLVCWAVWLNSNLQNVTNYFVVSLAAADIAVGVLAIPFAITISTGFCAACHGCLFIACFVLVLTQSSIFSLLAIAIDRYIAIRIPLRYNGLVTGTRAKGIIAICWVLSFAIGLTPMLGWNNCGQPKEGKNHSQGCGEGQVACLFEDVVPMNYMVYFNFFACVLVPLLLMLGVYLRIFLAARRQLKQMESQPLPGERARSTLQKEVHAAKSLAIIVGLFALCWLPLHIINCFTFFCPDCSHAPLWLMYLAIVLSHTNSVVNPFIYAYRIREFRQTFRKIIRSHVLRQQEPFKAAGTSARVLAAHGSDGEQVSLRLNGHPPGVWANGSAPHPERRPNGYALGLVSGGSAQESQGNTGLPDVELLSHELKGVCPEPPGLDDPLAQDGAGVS

Take `N=c1ccc2c(-c3ccc(C(=O)NCCNC(=O)COc4ccc(CCCn5ncc6c5nc(N)n5nc(-c7ccco7)nc65)cc4)cc3C(=O)O)c3ccc(N)c(S(=O)(=O)O)c3oc-2c1S(=O)(=O)O`: the Kd at Adenosine receptor A2a [1] came out at 16.5 nM; on Adenosine receptor A2a [2] it was 29 nM; on Adenosine receptor A2a [3], 30.8 nM; at Adenosine receptor A2a [4], 49.5 nM; at Adenosine receptor A2a [5] it was 42.4 nM.

At Adenosine receptor A2a [6], `Nc1nc2c(cnn2Cc2ccc(C3(C(F)(F)F)N=N3)cc2)c2nc(-c3ccco3)nn12` displayed an inhibitory constant (Ki) of 1520 nM.

`Nc1nc2nn(Cc3ccc(C4(C(F)(F)F)N=N4)cc3)cc2c2nc(-c3ccco3)nn12` registered a Ki on Adenosine receptor A2a [6] of 39.7 nM.
